Reference: patent US9115122B2, “Non-ATP dependent inhibitors of extracellular signal-regulated kinase (ERK)” (UNIVERSITY OF MARYLAND, BALTIMORE, priority 2012, dated 2015)

Tests used:
Assay in all cases: Cell proliferation WST-1 assay, single dose (Example 4)
Format in all cases: cell-based
Details in all cases: 100 μM, 48 hours
A375 melanoma cells = system: A375 melanoma cells
Method: (§1) In addition, compounds were tested in RPMI-7951 cells, which also contain mutated BRaf and are resistant to BRaf inhibitors due to the overexpression of MAP3K8 (the gene encoding COT/Tp12) that provides an alternative mechanism to indirectly or directly activate ERK proteins. […] For comparison, HeLa cervical carcinoma and Jurkat T-cell leukemia cells, which are p53 defective cancer cell lines but contain no known activating mutations in the ERK pathway, were studied. […] Cell proliferation was evaluated by water soluble tetrazolium-1 (WST-1) assay as previously described. Briefly, cells (˜5000/well) were seeded in 96 well plates, allowed to recover for 16-20 hours, and then treated with the indicated test compound for 48 hours. After incubation, WST-1 reagent was added and absorbance was read at 450 nm with background subtraction taken at 650 nm. Values were normalized to the control (DMSO only treated) cells.

HL-60 leukemic cells = system: HL-60 leukemic cells
Method: as §1

[1] = system: HeLa cervical carcinoma cells
Method: as §1

[2] = system: Jurkat T-cell leukemia cells
Method: as §1

RPMI-7951 melanoma cells = system: RPMI-7951 melanoma cells
Method: as §1

SK-MEL-28 melanoma cells = system: SK-MEL-28 melanoma cells
Method: as §1

SMILES | Cell Viability (% of Vehicle) A375 (A375 melanoma cells) | Cell Viability (% of Vehicle) HL-60 (HL-60 leukemic cells) | Cell Viability (% of Vehicle) HeLa [1] | Cell Viability (% of Vehicle) Jurkat [2] | Cell Viability (% of Vehicle) RPMI-7951 (RPMI-7951 melanoma cells) | Cell Viability (% of Vehicle) SK-MEL-28 (SK-MEL-28 melanoma cells)
CCOc1ccc(/C=C2\SC(=O)N(CCO)C2=O)cc1 [Compound 28e, (Z)-5-(4-ethoxybenzylidene)-3-(2-hydroxyethyl)thiazolidine-2,4-dione] | 116 ± 4 % of Vehicle | 91 ± 19 % of Vehicle | 91 ± 2 % of Vehicle | 101 ± 4 % of Vehicle | 137 ± 8 % of Vehicle | 91 ± 1 % of Vehicle
CCOc1ccc(/C=C2\SC(=O)N(CCCl)C2=O)cc1 [Compound 28f, (Z)-3-(2-chloroethyl)-5-(4-ethoxybenzylidene)thiazolidine-2,4-dione] | 113 ± 9 % of Vehicle | 99 ± 14 % of Vehicle | 87 ± 4 % of Vehicle | 99 ± 5 % of Vehicle | 128 ± 3 % of Vehicle | 97 ± 3 % of Vehicle
CCOc1ccc(/C=C2\SC(=O)N(CC(=O)OC(C)(C)C)C2=O)cc1 [Compound 28g, (Z)-tert-butyl 2-(5-(4-ethoxybenzylidene)-2,4-dioxothiazolidin-3-yl)acetate] | 117 ± 7 % of Vehicle | 95 ± 18 % of Vehicle | 88 ± 7 % of Vehicle | 108 ± 3 % of Vehicle | 110 ± 3 % of Vehicle | 101 ± 2 % of Vehicle
CCOc1ccc(/C=C2\SC(=O)N(CC(=O)O)C2=O)cc1 [Compound 28h, (Z)-2-(5-(4-ethoxybenzylidene)-2,4-dioxothiazolidin-3-yl)acetic acid] | 122 ± 6 % of Vehicle | 97 ± 27 % of Vehicle | 104 ± 3 % of Vehicle | 108 ± 3 % of Vehicle | 133 ± 9 % of Vehicle | 106 ± 1 % of Vehicle
CCOc1ccc(/C=C2\SC(=O)N(Cc3ccccc3)C2=O)cc1 [Compound 28i, (Z)-3-benzyl-5-(4-ethoxybenzylidene)thiazolidine-2,4-dione] | 110 ± 4 % of Vehicle | 65 ± 1 % of Vehicle | 95 ± 4 % of Vehicle | 105 ± 4 % of Vehicle | 114 ± 20 % of Vehicle | 90 ± 3 % of Vehicle
CCOc1ccc(/C=C2\SC(=O)N(Cc3ccccn3)C2=O)cc1 [Compound 28j, (Z)-5-(4-ethoxybenzylidene)-3-(pyridin-2-ylmethyl)thiazolidine-2,4-dione] | 124 ± 6 % of Vehicle | 89 ± 31 % of Vehicle | 89 ± 5 % of Vehicle | 101 ± 7 % of Vehicle | 114 ± 5 % of Vehicle | 95 ± 3 % of Vehicle
CCOc1ccc(/C=C2\SC(=O)N(Cc3cccnc3)C2=O)cc1 [Compound 28k, (Z)-5-(4-ethoxybenzylidene)-3-(pyridin-3-ylmethyl)thiazolidine-2,4-dione] | 105 ± 4 % of Vehicle | 65 ± 12 % of Vehicle | 80 ± 2 % of Vehicle | 98 ± 2 % of Vehicle | 102 ± 2 % of Vehicle | 79 ± 4 % of Vehicle
CCOc1ccc(/C=C2\SC(=O)N(Cc3ccncc3)C2=O)cc1 [Compound 28l, (Z)-5-(4-ethoxybenzylidene)-3-(pyridin-4-ylmethyl)thiazolidine-2,4-dione] | 105 ± 12 % of Vehicle | 82 ± 54 % of Vehicle | 81 ± 5 % of Vehicle | 96 ± 11 % of Vehicle | 102 ± 3 % of Vehicle | 79 ± 3 % of Vehicle
CCOc1ccc(/C=C2\SC(=O)N(Cc3ccc(C#N)cc3)C2=O)cc1 [Compound 28m, (Z)-4-((5-(4-ethoxybenzylidene)-2,4-dioxothiazolidin-3-yl)methyl)benzonitrile] | 108 ± 3 % of Vehicle | 86 ± 37 % of Vehicle | 95 ± 3 % of Vehicle | 103 ± 11 % of Vehicle | 106 ± 8 % of Vehicle | 97 ± 7 % of Vehicle
CCOc1ccc(/C=C2\SC(=O)N(Cc3ccc([N+](=O)[O-])cc3)C2=O)cc1 [Compound 28n, (Z)-5-(4-ethoxybenzylidene)-3-(4-nitrobenzyl)thiazolidine-2,4-dione] | 117 ± 3 % of Vehicle | 97 ± 23 % of Vehicle | 97 ± 9 % of Vehicle | 101 ± 9 % of Vehicle | 119 ± 13 % of Vehicle | 104 ± 3 % of Vehicle
CCOc1ccc(/C=C2\SC(=O)N(Cc3ccc(N)cc3)C2=O)cc1 [Compound 28o, (Z)-3-(4-aminobenzyl)-5-(4-ethoxybenzylidene)thiazolidine-2,4-dione] | 119 ± 6 % of Vehicle | 86 ± 21 % of Vehicle | 89 ± 9 % of Vehicle | 97 ± 7 % of Vehicle | 102 ± 23 % of Vehicle | 94 ± 5 % of Vehicle
CCOc1ccc(/C=C2\SC(=O)N(Cc3ccc(C(=O)OC(C)(C)C)cc3)C2=O)cc1 [Compound 28p, (Z)-tert-butyl 4-((5-(4-ethoxybenzylidene)-2,4-dioxothiazolidin-3-yl)methyl)benzoate] | 119 ± 1 % of Vehicle | 98 ± 24 % of Vehicle | 100 ± 6 % of Vehicle | 101 ± 2 % of Vehicle | 122 ± 1 % of Vehicle | 105 ± 3 % of Vehicle
CCOc1ccc(/C=C2\SC(=O)N(Cc3ccc(C(=O)O)cc3)C2=O)cc1 [Compound 28q, (Z)-4-((5-(4-ethoxybenzylidene)-2,4-dioxothiazolidin-3-yl)methyl)benzoic acid] | 2.0 ± 0.5 % of Vehicle | 84 ± 37 % of Vehicle | 64 ± 2 % of Vehicle | 85 ± 3 % of Vehicle | 34 ± 3 % of Vehicle | 59 ± 13 % of Vehicle
CCOc1ccc(/C=C2\SC(=O)N(Cc3cccc(C(=O)O)c3)C2=O)cc1 [Compound 28r, (Z)-3-((5-(4-ethoxybenzylidene)-2,4-dioxothiazolidin-3-yl)methyl)benzoic acid] | 59 ± 1 % of Vehicle | 41 ± 22 % of Vehicle | 75 ± 4 % of Vehicle | 80 ± 3 % of Vehicle | 83 ± 6 % of Vehicle | 83 ± 7 % of Vehicle
CCOc1ccc(/C=C2\SC(=O)N(Cc3ccccc3C(=O)O)C2=O)cc1 [Compound 28s, (Z)-2-((5-(4-ethoxybenzylidene)-2,4-dioxothiazolidin-3-yl)methyl)benzoic acid] | 39 ± 1 % of Vehicle | 31 ± 15 % of Vehicle | 61 ± 4 % of Vehicle | 46 ± 1 % of Vehicle | 45 ± 8 % of Vehicle | 49 ± 8 % of Vehicle
NCCN1C(=O)S/C(=C\c2ccccc2)C1=O [Compound 30a, (Z)-3-(2-aminoethyl)-5-benzylidenethiazolidine-2,4-dione] | 82 ± 9 % of Vehicle | 28 ± 20 % of Vehicle | 82 ± 10 % of Vehicle | 88 ± 4 % of Vehicle | 89 ± 17 % of Vehicle | 88 ± 7 % of Vehicle
CCOc1cccc(/C=C2\SC(=O)N(CCN)C2=O)c1 [Compound 30b, (Z)-3-(2-aminoethyl)-5-(3-ethoxybenzylidene)thiazolidine-2,4-dione] | 19 ± 3 % of Vehicle | 4.8 ± 2 % of Vehicle | 40 ± 1 % of Vehicle | 54 ± 5 % of Vehicle | 30 ± 2 % of Vehicle | 36 ± 6 % of Vehicle
CCOc1ccccc1/C=C1\SC(=O)N(CCN)C1=O [Compound 30c, (Z)-3-(2-aminoethyl)-5-(2-ethoxybenzylidene)thiazolidine-2,4-dione] | 22 ± 9 % of Vehicle | 8.9 ± 4 % of Vehicle | 39 ± 3 % of Vehicle | 66 ± 5 % of Vehicle | 45 ± 2 % of Vehicle | 52 ± 11 % of Vehicle
